Calls of active or inactive are those of the source.
What was measured:
Type in all cases: functional, organism-based
[1] = tested on: Candida albicans; assay: Antimicrobial activity against Candida albicans at 20 ug/mL
[2] = tested on: Aspergillus fumigatus; assay: Antimicrobial activity against Aspergillus fumigatus at 20 ug/mL
[3] = tested on: Pseudomonas aeruginosa; assay: Antimicrobial activity against Pseudomonas aeruginosa at 20 ug/mL
[4] = tested on: Staphylococcus aureus; assay: Antimicrobial activity against methicillin-resistant Staphylococcus aureus at 20 ug/mL
[5] = tested on: Staphylococcus aureus; assay: Antimicrobial activity against Staphylococcus aureus at 20 ug/mL
[6] = tested on: Mycobacterium intracellulare; assay: Antimicrobial activity against Mycobacterium intracellular at 20 ug/mL
[7] = tested on: Cryptococcus neoformans; assay: Antimicrobial activity against Cryptococcus neoformans at 20 ug/mL

Measured: Activity

COc1cc(C(=O)O[C@H]2C[C@]3(C(=O)O)C[C@@H]4C[C@]45C(=CCC4[C@@]6(C)CC[C@H](O[C@@H]7O[C@H](CO)[C@@H](O)[C@H](O)[C@H]7O[C@@H]7OC[C@@H](O[C@@H]8OC[C@@H](O)[C@H](O)[C@H]8O)[C@H](O)[C@H]7O)C(C)(C)[C@@H]6CC[C@]45C)[C@@H]3CC2(C)C)cc(OC)c1OC (some centres not stated)
inactive: all assays above

Source: ChEMBL document CHEMBL1152969, “Verbesinosides A-F, 15,27-cyclooleanane saponins from the American native plant Verbesina virginica” (J Nat Prod, 2009)
